Activity calls are given as the source filed them. No rule for the calls is given here. Where only a bound is given, the exact number is not on record here.

In PubChem BioAssay AID1648 (Sanford-Burnham Center for Chemical Genomics, 2009) one finds Kd data, which are given here for 101 molecules.

In this assay the target is Serine/threonine-protein kinase mTOR (Homo sapiens) (UniProt P42345). The experiment in a line: mTOR FRB domain ligand binding – biophysical, NMR (AID 1648). The note with it: NMR binding to FRB domain, chemical shift.
Sequence of Serine/threonine-protein kinase mTOR (Homo sapiens) (P42345 2015-2114): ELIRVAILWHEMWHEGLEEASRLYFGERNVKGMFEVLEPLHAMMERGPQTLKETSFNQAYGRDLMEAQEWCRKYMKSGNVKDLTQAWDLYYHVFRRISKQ
One may read the Kd as the concentration at which binding is half-saturated. In the case of `NC(=O)CSCc1ccc(Br)cc1`, the Kd was > 4 mM (inactive).

With `Cc1csc(NC(=O)c2ccoc2C)n1`, the Kd is > 4 mM (inactive). As for `Nc1cc(=O)[nH]c(=S)n1CCc1ccccc1`, the figure is > 4 mM (inactive). As for `CC(C)=CCc1c2c(c3occ(-c4ccc(O)c(O)c4)c(=O)c3c1O)C=CC(C)(C)O2`, the figure is > 4 mM (inactive); as for `O=[N+]([O-])c1ccc(/C=N/c2ncn[nH]2)cc1`, > 4 mM (inactive); as for `CNC(=O)C(=O)Nc1c(C)cccc1C`, > 4 mM (inactive). The figure for `COc1ccc(/C=N/n2cn[nH]c2=S)cc1` is > 4 mM (inactive). Turning to `O=P(O)(Cc1ccccc1)c1ccccc1`, the Kd was > 4 mM (inactive).

Consider `CC(=O)O[C@@H]1CC2C(C)(CC[C@H](O)C2(C)C)C2CC[C@]3(C)C(=CC(=O)O[C@H]3c3ccoc3)C21C` (stereo partly specified), for which the Kd is > 4 mM (inactive). Turning to `COc1c2c(cc3cc[n+](C)cc13)OCO2`, the Kd was > 4 mM (inactive).

On to `Oc1ccc(-c2n[nH]c(=S)n2Cc2ccco2)cc1`, for which the Kd is > 4 mM (inactive). As for `Cc1nc2ccccc2c(=O)n1-c1cccc(O)c1`, the figure is > 4 mM (inactive). The figure for `COc1ccc2cc1Oc1ccc(cc1)C[C@H]1c3c(cc4c(c3Oc3cc5c(cc3OC)CCN(C)[C@@H]5C2)OCO4)CCN1C` is > 4 mM (inactive); for `Cc1nnc2n(c1=O)N=C(c1ccccc1)CS2` it is > 4 mM (inactive). Consider `O=S1(=O)CCC(NC(=S)N2CCOCC2)C1` (stereo unspecified), for which the Kd is > 4 mM (inactive).

Take `NCC1COc2ccccc2O1` (stereo unspecified): the Kd was > 4 mM (inactive). As for `O=C1CNC(=O)N1Cc1ccc(F)cc1`, the figure is > 4 mM (inactive); as for `Cc1occc1C(=O)Nc1nnc(-c2ccncc2)s1`, > 4 mM (inactive); as for `NC(=O)C1(S(=O)(=O)c2ccccc2)CC1`, > 4 mM (inactive).

With `NC(=O)CSc1nc2ccccc2[nH]1`, the Kd was > 4 mM (inactive). The figure for `CC(C1OC(C)(C)C(O)C1O)[C@@H]1CC[C@]2(C)C3=CCC4C(C)(C)C(=O)CC[C@]4(C)C3CC[C@@]12C` (stereo partly specified) is > 4 mM (inactive). The figure for `Cc1ccc(NC(=O)/C=C2\SC(=O)NC2=O)cc1` is > 4 mM (inactive). The figure for `Cc1ccccc1NC(=O)/C=C\C(N)=O` is > 4 mM (inactive); for `OCC1CN(Cc2ccccc2)CCO1` (stereo unspecified) it is > 4 mM (inactive). Regarding `NS(=O)(=O)c1ccc(N=Cc2cccs2)cc1`, the Kd was > 4 mM (inactive). As for `COc1cccc(/C=N/N=C2/NC(=O)CS2)c1`, the figure is > 4 mM (inactive).

`CC1(C)CC23C(=O)CCC(O)C2(C)CCC13` (stereo unspecified): the Kd was > 4 mM (inactive). As for `O=C(O)C1CSC(c2cc3ccccc3nc2Cl)N1` (stereo unspecified), the figure is > 4 mM (inactive); as for `COc1ccc(-c2oc3c(CC=C(C)C)c(O[C@@H]4O[C@H](CO)[C@@H](O)[C@H](O)[C@H]4O)cc(O)c3c(=O)c2O[C@@H]2O[C@@H](C)[C@H](O)[C@@H](O)[C@H]2O)cc1`, > 4 mM (inactive). As for `O=C(NCc1ccccc1F)c1cccs1`, the figure is > 4 mM (inactive); as for `Nc1nc(SCC(=O)c2ccc([N+](=O)[O-])cc2)n[nH]1`, > 4 mM (inactive); as for `O=c1nc(C(F)(F)F)nc2ccccn12`, > 4 mM (inactive). The figure for `O=c1c2ccccc2nc2n1CCS2` is > 4 mM (inactive); for `CC(=O)O[C@@H]1CC2C(C)(C)C(=O)[C@@H]3O[C@@H]3[C@]2(C)C2CC[C@]3(C)C(=CC(=O)O[C@H]3c3ccoc3)[C@@]21C` (stereo partly specified) it is > 4 mM (inactive); for `Cc1ccc(C(=O)NCCO)c(Cl)c1` it is > 4 mM (inactive). Turning to `NCc1c[nH]c2ccccc12`, the Kd was > 4 mM (inactive). As for `CC(=O)Nc1ccc(N2C(=O)C=CC2=O)cc1C`, the figure is > 4 mM (inactive); as for `NC(=O)C1CCN(C(=O)CN2CCc3ccccc32)CC1`, > 4 mM (inactive); as for `COc1cc(C)c(S(=O)(=O)N2CCN(C)CC2)cc1C`, > 4 mM (inactive). As for `Fc1cccc(F)c1CN1CCN(c2ncccn2)CC1`, the Kd was > 4 mM (inactive).

Turning to `Cc1cccc(CO)n1`, the Kd was > 4 mM (inactive).

Turning to `CC(=O)Nc1cc2c(cc1C(=O)C(C)C)OCCO2`, the Kd is > 4 mM (inactive).

`CCCCn1c(S(=O)(=O)O)nc2ccccc21`: the Kd was > 4 mM (inactive).

With `O=C(Nc1cccnc1)Nc1ccc2c(c1)OCO2`, the Kd was > 4 mM (inactive).

Turning to `O=C1CNC(=O)N1c1cccc(Cl)c1`, the Kd is > 4 mM (inactive). As for `CC(=O)c1cc(C)ccc1O`, the figure is > 4 mM (inactive); as for `COC1C=CC23c4cc5c(cc4CN(CC2O)[C@@H]3C1)OCO5` (stereo partly specified), > 4 mM (inactive). For `Cc1oc2nc3c(c(=O)[nH]c(=O)n3C)n2c1C`, the Kd is > 4 mM (inactive). As for `C=C(C)C1Cc2c(ccc(C(=O)O)c2O)O1` (stereo unspecified), the figure is > 4 mM (inactive); as for `CCCS(=O)(=O)N1CCN(c2ccccc2F)CC1`, > 4 mM (inactive); as for `O=C(O)CNCC(O)Cn1c2ccccc2c2ccccc21` (stereo unspecified), > 4 mM (inactive).

For `Cc1nc(-c2ccccc2)sc1C(N)=O`, the Kd was > 4 mM (inactive).

As for `Cc1cc(C(F)(F)F)nn1CC(N)=O`, the Kd was > 4 mM (inactive). As to `COC(=O)C1[C@H]2C[C@H]3c4[nH]c5ccccc5c4CCN3C[C@@H]2CC[C@@H]1O` (stereo partly specified), the Kd was > 4 mM (inactive). For the molecule `CC(=O)Nc1ccc(N2CCOCC2)cc1`, the Kd is > 4 mM (inactive). With `CN(C(=O)NC1CCS(=O)(=O)C1)C1CCCCC1` (stereo unspecified), the Kd was > 4 mM (inactive). As for `Cc1nc(-c2ccccc2)sc1CO`, the Kd was > 4 mM (inactive). The figure for `CC(=O)Nc1nnc(-c2ccco2)o1` is > 4 mM (inactive); for `O=C1CC(=O)N(c2ccccc2)C(=O)N1` it is > 4 mM (inactive).

On to `O=C(O)CCc1nc2ccccc2[nH]c1=O`, for which the Kd was > 4 mM (inactive). Consider `FC(F)(F)c1cc(-c2ccco2)nc(N2CCOCC2)n1`, for which the Kd is > 4 mM (inactive). On to `COC(=O)[C@@H]1C(O)CC[C@H]2CN3CCc4c([nH]c5ccccc45)[C@@H]3C[C@@H]21` (stereo partly specified), for which the Kd was > 4 mM (inactive). As for `Cc1cc(C)nc(Nc2n[nH]c(Cc3ccccc3)n2)n1`, the Kd was > 4 mM (inactive).

Regarding `c1ccc(Cn2cccc2)nc1`, the Kd was > 4 mM (inactive). As for `O=CN1CCN(C(=O)c2ccc(F)cc2)CC1`, the figure is > 4 mM (inactive); as for `O=C(O)C1CCN(c2ccc(C(F)(F)F)cn2)CC1`, > 4 mM (inactive).

`COc1cccc(/C=C/C(=O)O)c1C(C)C`: the Kd is > 4 mM (inactive).

Consider `O=C(O)C1CC(=O)N(Cc2ccc(F)cc2)C1` (stereo unspecified), for which the Kd was > 4 mM (inactive). Take `COc1ccc(N=C2NC(=O)CS2)cc1`: the Kd was > 4 mM (inactive). In the case of `Nc1nnc(SCc2ccc(F)cc2)s1`, the Kd is > 4 mM (inactive). For the molecule `Cc1ccc(N2C(=O)CC(=O)NC2=O)cc1`, the Kd is > 4 mM (inactive). The figure for `CC(C)(CO)NC(=O)c1ccccc1F` is > 4 mM (inactive); for `O=C(O)CSCc1ccc(Cl)cc1` it is > 4 mM (inactive); for `O=c1/c(=C/c2ccccc2F)sc2ncnn12` it is > 4 mM (inactive). The figure for `Cc1c(C)c2c(c(C)c1O)CCC(C)(CCCC(C)CCCC(C)CCCC(C)C)O2` (stereo unspecified) is > 4 mM (inactive). As for `Cc1occc1C(=O)N1CCC2(CC1)OCCO2`, the figure is > 4 mM (inactive). Take `Cc1nnc(NCc2cccnc2)[nH]c1=O`: the Kd is > 4 mM (inactive). `CCC(C)C(=O)OC1[C@@H]2CC3=C4CC(=O)O[C@@H](c5ccoc5)[C@]4(C)CCC3C(C)(C2=O)[C@@H](CC(=O)OC)C1(C)C` (stereo partly specified): the Kd was > 4 mM (inactive).

Turning to `OC(c1ccccc1)c1ccccn1` (stereo unspecified), the Kd was > 4 mM (inactive). The figure for `O=CN1CCN(C2CC(=O)N(c3ccccc3)C2=O)CC1` (stereo unspecified) is > 4 mM (inactive); for `Nc1cccc(S(=O)(=O)N2CCCCC2)c1` it is > 4 mM (inactive); for `CCCn1cnc2sc(C(N)=O)c(C)c2c1=O` it is > 4 mM (inactive). As for `COc1ccc(-c2ccc(=O)n(CC(N)=O)n2)cc1`, the figure is > 4 mM (inactive); as for `C[C@@H]1CCC2[C@](C)(CO)[C@@H](O)CC[C@]2(C)[C@@]12CC[C@@](CO)(CCO)O2` (stereo partly specified), > 4 mM (inactive); as for `O=C(NC12CC3CC(CC(C3)C1)C2)c1cnccn1`, > 4 mM (inactive). The figure for `O=C(NCc1ccccn1)c1ccc(Cl)cc1Cl` is > 4 mM (inactive); for `C=C1C(=O)O[C@@H]2C3OC3(C)CC/C=C(\C)CC[C@@H]12` (stereo partly specified) it is > 4 mM (inactive); for `O=c1n(-c2cccc(Cl)c2)c(=O)n2n1CCC2` it is > 4 mM (inactive).

Turning to `S=C(NCc1cccnc1)NC1CC1`, the Kd was > 4 mM (inactive). The figure for `COc1cc2c(cc1O)[C@@H](Cc1ccc(O)cc1)[N+](C)(C)CC2` is > 4 mM (inactive).

With `COc1ccc(C)cc1S(=O)(=O)Nc1ccccc1C`, the Kd was > 4 mM (inactive).

Take `OC12CC3CC(C1)C1(NCCS1)C(C3)C2` (stereo unspecified): the Kd is > 4 mM (inactive).

Take `Cc1cc(-c2ccccc2)nc2cc(C(N)=O)nn12`: the Kd is > 4 mM (inactive). The figure for `Cc1cc(C)n2nc(N)nc2n1` is > 4 mM (inactive); for `CNC(=O)C1COc2ccccc2O1` (stereo unspecified) it is > 4 mM (inactive); for `CCNS(=O)(=O)c1cc(Br)ccc1OC` it is > 4 mM (inactive). As for `Fc1cc2nccnc2cc1N1CCSCC1`, the figure is > 4 mM (inactive); as for `Cc1nn(C)c(C)c1NC(=S)NC1CCCC1`, > 4 mM (inactive). As for `O=c1[nH]cnc2nc[nH]c12`, the figure is > 4 mM (inactive); as for `CC(=O)Nc1ccc(-c2ccc3nncn3n2)cc1`, > 4 mM (inactive). As for `S=C(c1ccc2c(c1)OCO2)N1CCCC1`, the Kd is > 4 mM (inactive).
